The structures appear in SMILES notation. Structures can show the parent of a compound that is named as a salt.

The term melting point denotes the temperature of the solid-liquid transition. As to `S=C1CCc2cc(-c3cccnc3)cc3c2N1CC3` (as salt: HCl) [Example 22, 8-Pyridin-3-yl-1,2,5,6-tetrahydro-pyrrolo[3,2,1-ij]quinoline-4-thione], the melting point turned out to be 283 °C.

`O=C1CCc2cc(-c3cncc(O)c3)cc3c2N1CC3` (as salt: HCl) [Example 23, 8-(5-Hydroxypyridin-3-yl)-1,2,5,6-tetrahydro-pyrrolo[3,2,1-ij]quinolin-4-one] had a melting point of more than 300 °C. The value for `CN1C(=O)CCc2cc(-c3cccnc3)ccc21` [Example 2, 1-Methyl-6-pyridin-3-yl-3,4-dihydro-1H-quinolin-2-one] was 101 °C. With `COc1cncc(-c2ccc3c(c2)CCC(=O)N3)c1` [Example 4, 6-(5-Methoxypyridin-3-yl)-3,4-dihydro-1H-quinolin-2-one], the melting point was determined as 215 °C. For `CC(C)N1C(=O)CCc2cc(-c3cccnc3)ccc21` [Example 10, 1-Isopropyl-6-pyridin-3-yl-3,4-dihydro-1H-quinolin-2-one] the value was 101 °C; for `O=C1CCc2cc(-c3cccnc3)cc3c2N1CC3` [Example 11, 8-Pyridin-3-yl-1,2,5,6-tetrahydro-pyrrolo[3,2,1-ij]quinoline-4-one], 152 °C.

Consider `O=C1CCc2cc(-c3cccnc3)cc([N+](=O)[O-])c2N1` [Example 13, 8-Nitro-6-pyridin-3-yl-3,4-dihydro-1H-quinolin-2-one], for which the melting point was determined as 189 °C. `S=C1CCc2cc(-c3cccnc3)cc(Cl)c2N1` [Example 15, 8-Chloro-6-pyridin-3-yl-3,4-dihydro-1H-quinoline-2-thione] returned a melting point of 175 °C.

In turn, `O=C1CCc2cc(-c3cccnc3)cc3c2N1CCC3` [Example 16, 9-Pyridin-3-yl-1,2,6,7-tetrahydro-5H-pyrido[3,2,1-ij]quinolin-3-one] showed a melting point of 123 °C. For `COc1cncc(-c2cc3c4c(c2)CCN4C(=O)CC3)c1` [Example 17, 8-(5-Methoxypyridin-3-yl)-1,2,5,6-tetrahydro-pyrrolo[3,2,1-ij]quinolin-4-one] the value was 172 °C; for `O=C1CCc2cc(-c3cncc4ccccc34)cc3c2N1CC3` [Example 18, 8-Isoquinolin-4-yl-1,2,5,6-tetrahydro-pyrrolo[3,2,1-ij]quinolin-4-one], 185 °C.

In turn, `O=C1CCc2cc(-c3cncc4ccccc34)cc3c2N1CCC3` [Example 20, 9-Isoquinolin-4-yl-1,2,6,7-tetrahydro-5H-pyrido[3,2,1-ij]quinolin-3-one] displayed a melting point of 159 °C. Take `O=C1CCc2cc(-c3cncnc3)ccc2N1` [Example 21, 6-Pyrimidin-5-yl-3,4-dihydro-1H-quinolin-2-one]: the melting point came to 233 °C. With `CC1(C)CC(=O)N2CCc3cc(-c4cccnc4)cc1c32` [Example 24, 6,6-Dimethyl-8-pyridin-3-yl-1,2,5,6-tetrahydro-pyrrolo[3,2,1-ij]quinolin-4-one], the melting point was determined as 180 °C. Take `CCOc1cncc(-c2cc3c4c(c2)CCN4C(=O)CC3)c1` [Example 25, 8-(5-Ethoxypyridin-3-yl)-1,2,5,6-tetrahydro-pyrrolo[3,2,1-ij]quinolin-4-one]: the melting point was found to be 172 °C. In turn, `O=C1CCc2cc(-c3cncc(C(F)(F)F)c3)cc3c2N1CC3` [Example 26, 8-(5-Trifluoromethylpyridin-3-yl)-1,2,5,6-tetrahydro-pyrrolo[3,2,1-ij]quinolin-4-one] yielded a melting point of 212 °C.

Turning to `O=C1CCc2cc(-c3cncc(F)c3)cc3c2N1CC3` [Example 27, 8-(5-Fluoropyridin-3-yl)-1,2,5,6-tetrahydro-pyrrolo[3,2,1-ij]quinolin-4-one], the melting point came out at 158 °C. Compound `O=C1CCc2cc(-c3ccncc3)cc3c2N1CC3` [Example 29, 8-Pyridin-4-yl-1,2,5,6-tetrahydro-pyrrolo[3,2,1-ij]quinolin-4-one] had a melting point of 174 °C. For `O=C1CCc2cc(-c3cncnc3)cc3c2N1CC3` [Example 30, 8-Pyrimidin-5-yl-1,2,5,6-tetrahydro-pyrrolo[3,2,1-ij]quinolin-4-one] the value was 186 °C; for `O=C(c1ccncc1)c1cc2c3c(c1)CCN3C(=O)CC2` [Example 31, 8-(Pyridine-4-carbonyl)-1,2,5,6-tetrahydro-pyrrolo[3,2,1-ij]quinolin-4-one], 184 °C. The value for `O=C(c1cccnc1)c1cc2c3c(c1)CCN3C(=O)CC2` [Example 32, 8-(Pyridine-3-carbonyl)-1,2,5,6-tetrahydro-pyrrolo[3,2,1-ij]quinolin-4-one] was 147 °C; that for `O=C1CCc2cc(-c3cncc(-c4ccccc4)c3)cc3c2N1CC3` [Example 33, 8-(5-Phenylpyridin-3-yl)-1,2,5,6-tetrahydro-pyrrolo[3,2,1-ij]quinolin-4-one] was 189 °C. Take `CC(C)Oc1cncc(-c2cc3c4c(c2)CCN4C(=O)CC3)c1` [Example 34, 8-(5-Isopropoxypyridin-3-yl)-1,2,5,6-tetrahydro-pyrrolo[3,2,1-ij]quinolin-4-one]: the melting point amounted to 155 °C. `CC(c1cc2c3c(c1)CCN3C(=O)CC2)n1ccnc1` (centres unmarked) [Example 35, 8-(1-Imidazol-1-yl-ethyl)-1,2,5,6-tetrahydro-pyrrolo[3,2,1-ij]quinolin-4-one] registered a melting point of 197 °C.

Consider `O=C1CCc2cc(-c3cncc(-c4ccc(F)cc4)c3)cc3c2N1CC3` [Example 36, 8-[5-(4-Fluorophenyl)-pyridin-3-yl]-1,2,5,6-tetrahydro-pyrrolo[3,2,1-ij]quinolin-4-one], for which the melting point stood at 233 °C. The value for `O=C1CCc2cc(-c3cncc(-c4cccc(F)c4)c3)cc3c2N1CC3` [Example 37, 8-[5-(3-Fluorophenyl)-pyridin-3-yl]-1,2,5,6-tetrahydro-pyrrolo[3,2,1-ij]quinolin-4-one] was 181 °C; that for `O=C1CCc2cc(-c3cccnc3)cc(F)c2N1` [Example 46] was 203 °C.

`O=C1CCc2cc(-c3cccnc3)c(F)cc2N1` [Example 47] returned a melting point of 228 °C. Consider `O=C1CCc2cc(-c3cncc4ccccc34)cc(F)c2N1` [Example 48, 8-Fluoro-6-isoquinolin-4-yl-3-yl-3,4,4a,8a-tetrahydro-1H-quinolin-2-one], for which the melting point was 202 °C. Turning to `O=C1CCc2cc(-c3cncc4ccccc34)c(F)cc2N1` [Example 49], the melting point was 281 °C. As for `O=C1CCc2cc(-c3cccnc3)c(O)cc2N1` [Example 50], the melting point was found to be 298 °C. `Fc1cc(-c2cccnc2)cc2c1NC(=S)CC2` [Example 51] came in with a melting point of 235 °C.

For `Fc1cc2c(cc1-c1cccnc1)CCC(=S)N2` [Example 52], the melting point was determined as 248 °C. For `O=C1COc2cc(-c3cccnc3)ccc2N1` [Example 53, 7-(Pyridin-3-yl)-2H-benzo[b][1,4]oxazin-3(4H)-one] the value was 256 °C; for `O=C1COc2cc(-c3cncc4ccccc34)ccc2N1` [Example 55, 7-(Isoquinolin-4-yl)-2H-benzo[b][1,4]oxazin-3(4H)-one], 266 °C.

The values are drawn from US8541404B2, “Inhibitors of the human aldosterone synthase CYP11B2” (ElexoPharm GmbH, priority 2009, dated 2013).
